What was measured:
[1] = target: Kynurenine--oxoglutarate transaminase 1 (Rattus norvegicus) (UniProt Q08415); test: Specific activity against beta-elimination reaction by rat renal cytosolic beta-lyase after incubation with 0.2 mg of protein/mL for 10 min at 37 degree C using 1 mM substrate conc.
[2] = target: Kynurenine--oxoglutarate transaminase 1 (Rattus norvegicus) (UniProt Q08415); test: Ratio of Vmax and Km for elimination of conjugates by rat renal cytosol

Kynurenine--oxoglutarate transaminase 1 (Rattus norvegicus), sequence (Q08415 whole entry, looked up): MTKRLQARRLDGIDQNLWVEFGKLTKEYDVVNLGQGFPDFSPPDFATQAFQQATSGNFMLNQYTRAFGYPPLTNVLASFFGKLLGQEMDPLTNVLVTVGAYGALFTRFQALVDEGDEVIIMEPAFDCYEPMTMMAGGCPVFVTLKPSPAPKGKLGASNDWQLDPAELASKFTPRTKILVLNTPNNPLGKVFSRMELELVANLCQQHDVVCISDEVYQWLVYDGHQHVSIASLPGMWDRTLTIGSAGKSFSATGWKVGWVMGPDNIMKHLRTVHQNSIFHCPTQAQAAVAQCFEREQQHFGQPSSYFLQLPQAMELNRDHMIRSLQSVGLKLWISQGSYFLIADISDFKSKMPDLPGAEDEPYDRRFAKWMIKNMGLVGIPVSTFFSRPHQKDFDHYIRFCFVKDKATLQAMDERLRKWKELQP

Structure (SMILES) | Specific activity (nM min-1 mg-1) [1] | Vmax / Km (nM min-1 mg-1 mM-1) [2]
CC[Se]C[C@H](N)C(=O)O | 11 | 21.8
CC(C)[Se]C[C@H](N)C(=O)O | 14.9 | 66.9
Cc1ccc(C[Se]C[C@H](N)C(=O)O)cc1 | 4.9 | 
N[C@@H](C[Se]c1ccccc1)C(=O)O | 13.8 | 44.2
COc1ccc(C[Se]C[C@H](N)C(=O)O)cc1 | 10.2 | 44.9
CCC[Se]C[C@H](N)C(=O)O | 3.3 | 
C[Se]C[C@H](N)C(=O)O | 4 | 
N[C@@H](C[Se]Cc1ccc(Cl)c(Cl)c1)C(=O)O | 12.3 | 49
N[C@@H](C[Se]Cc1ccccc1)C(=O)O | 9.8 | 70
C[Se]CC(N)C(=O)O (single isomer, unassigned) | 7.1 | 13.2
COc1ccc([Se]C[C@H](N)C(=O)O)cc1 | 4.3 | 14
CCC[Se]CC(N)C(=O)O (single isomer, unassigned) | 8 | 25.7
N[C@@H](C[Se]Cc1ccc(Cl)cc1)C(=O)O | 11.6 | 68.4
Cc1ccc(C[Se]CC(N)C(=O)O)cc1 (single isomer, unassigned) | 13.1 | 70.2
CCCC[Se]C[C@H](N)C(=O)O | 0.9 | 1.8
Cc1ccc([Se]CC(N)C(=O)O)cc1 (single isomer, unassigned) | 3.8 | 16.7
CCSC[C@H](N)C(=O)O | 0.1 | 
N[C@@H](C[Se]c1ccc(Cl)cc1)C(=O)O | 5.2 | 16.7
COc1ccc(CSC[C@H](N)C(=O)O)cc1 | 0.1 | 
N[C@@H](CSCc1ccccc1)C(=O)O | 0.2 | 
N[C@@H](CSc1ccccc1)C(=O)O | 0.2 | 
Cc1ccc([Se]C[C@H](N)C(=O)O)cc1 | 0.1 | 
Cc1ccc(CSC[C@H](N)C(=O)O)cc1 | 0.3 | 

— ChEMBL document CHEMBL1129314, “Synthesis of novel Se-substituted selenocysteine derivatives as potential kidney selective prodrugs of biologically active selenol compounds: evaluation of kinetics of beta-elimination reactions in rat renal cytosol” (J Med Chem, 1996)
